The target of experiment [1] is T1, TANK binding kinase (TBK1) (Homo sapiens, UniProt Q9UHD2).
T1 sequence (Q9UHD2 1-729): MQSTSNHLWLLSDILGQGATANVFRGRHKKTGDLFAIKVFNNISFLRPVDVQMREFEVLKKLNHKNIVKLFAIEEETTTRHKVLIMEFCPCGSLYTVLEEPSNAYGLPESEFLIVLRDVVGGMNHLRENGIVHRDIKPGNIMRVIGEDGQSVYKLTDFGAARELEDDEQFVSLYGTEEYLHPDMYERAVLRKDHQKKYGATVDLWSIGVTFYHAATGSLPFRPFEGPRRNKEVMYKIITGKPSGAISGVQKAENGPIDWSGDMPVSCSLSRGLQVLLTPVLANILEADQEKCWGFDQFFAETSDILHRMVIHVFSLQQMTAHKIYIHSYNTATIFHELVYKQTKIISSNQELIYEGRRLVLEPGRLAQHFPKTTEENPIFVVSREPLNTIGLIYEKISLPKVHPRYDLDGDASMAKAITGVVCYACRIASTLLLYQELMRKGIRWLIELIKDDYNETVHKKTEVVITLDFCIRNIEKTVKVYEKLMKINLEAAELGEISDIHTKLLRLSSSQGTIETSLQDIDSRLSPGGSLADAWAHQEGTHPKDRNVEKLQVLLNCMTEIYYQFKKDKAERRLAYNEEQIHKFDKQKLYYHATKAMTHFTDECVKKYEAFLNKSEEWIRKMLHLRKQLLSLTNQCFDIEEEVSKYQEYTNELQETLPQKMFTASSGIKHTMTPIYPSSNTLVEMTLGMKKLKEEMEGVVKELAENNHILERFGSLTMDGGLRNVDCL
The experiment can be described thus: TBK1 enzyme assay (384-well flashplate kinase assay). It counts as biochemical. The note with it: 10 μM ATP, 0.6 nM TBK1. The protocol: Test for the Inhibition of TBK1
(§1) The kinase assay is performed as 384-well flashplate assay (for example for Topcount measurement).
0.6 nM TANK binding kinase (TBK1), 800 nM biotinylated MELK-derived peptide (biotin-Ah-Ah-[…]) and 10 μM ATP (spiked with 0.25 μCi of ^33P-ATP/well) are incubated at 30° C. for 120 min in a total volume of 50 μl (10 mM MOPS, 10 mM Mg acetate, 0.1 mM EGTA, 1 mM DTT, 0.02% of Brij35, 0.1% of BSA, pH 7.5) with or without test compound. The reaction is stopped with 25 μl of 200 mM EDTA. After 30 min at room temperature, the liquid is removed, and each well is washed three times with 100 μl of 0.9% sodium chloride solution. Non-specific reaction is measured in the presence of 100 nM staurosporine. The radioactivity is measured in a Topcount (PerkinElmer). The results (for example IC50 values) are calculated using program tools provided by the IT Department (for example Assay-Explorer, Symyx). Cell Test

In the next experiment the target is T2, IKKε (Homo sapiens, UniProt Q14164).
T2 sequence (Q14164 1-716): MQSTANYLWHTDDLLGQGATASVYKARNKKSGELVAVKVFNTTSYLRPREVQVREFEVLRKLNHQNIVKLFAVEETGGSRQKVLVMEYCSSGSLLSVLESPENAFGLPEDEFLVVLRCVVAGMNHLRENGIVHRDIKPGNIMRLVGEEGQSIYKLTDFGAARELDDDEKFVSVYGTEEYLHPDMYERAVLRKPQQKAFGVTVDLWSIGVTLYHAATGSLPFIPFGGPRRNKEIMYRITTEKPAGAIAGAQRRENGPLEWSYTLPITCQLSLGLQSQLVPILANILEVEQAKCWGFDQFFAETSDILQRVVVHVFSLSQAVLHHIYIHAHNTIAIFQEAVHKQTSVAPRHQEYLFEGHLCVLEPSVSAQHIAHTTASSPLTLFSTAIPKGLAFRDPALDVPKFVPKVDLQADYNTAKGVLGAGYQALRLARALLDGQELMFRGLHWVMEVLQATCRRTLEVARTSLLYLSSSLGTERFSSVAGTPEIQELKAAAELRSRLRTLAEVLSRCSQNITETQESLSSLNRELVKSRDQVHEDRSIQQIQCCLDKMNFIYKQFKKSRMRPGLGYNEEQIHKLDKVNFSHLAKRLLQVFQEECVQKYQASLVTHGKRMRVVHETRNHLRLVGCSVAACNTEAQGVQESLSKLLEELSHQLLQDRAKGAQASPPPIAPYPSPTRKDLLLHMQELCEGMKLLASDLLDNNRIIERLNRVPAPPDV
The experiment can be described thus: IKKε kinase assay (384-well flashplate assay). The experiment is classed as biochemical. To be noted: 10 μM ATP, 1 nM IKKε; read-out: IKKε enzyme assay IC50. The protocol:
Test for the Inhibition of IKKε
IKKε—Kinase Assay (IKKepsilon)
as §1
1 nM IKKε, 800 nM biotinylated IκKα(19-42) peptide (Biotin-C6-C6-[…]) and 10 μM ATP (spiked with 0.3 μCi of ^33P-ATP/well) are incubated at 30° C. for 2 hours in a total volume of 50 μl (10 mM MOPS, 10 mM Mg acetate, 0.1 mM EGTA, 1 mM dithiothreitol, 0.02% of Brij35, 0.1% of BSA, 0.1% of BioStab, pH 7.5) with or without test compound. The reaction is stopped using 25 μl of 200 mM EDTA. After 30 min at room temperature, the liquid is removed, and each well is washed three times with 100 μl of 0.9% sodium chloride solution. Non-specific reaction is determined in the presence of 3 μM MSC2119074 (BX-795). The radioactivity is measured using a Topcount (Perkin Elmer). The results (for example IC50 values) are calculated using program tools provided by the IT Department (for example AssayExplorer, Symyx).

As to `N#Cc1cc(-c2c[nH]c3ncc(-c4cn(CCN5CCCC5)nn4)cc23)ccc1OC1CCOCC1` [Compound A27, 5-[5-[1-(2-Pyrrolidin-1-ylethyl)triazol-4-yl]-1H-pyrrolo-[2,3-b]pyridin-3-yl]-2-tetrahydropyran-4-yloxybenzo-nitrile], the IC50 (in experiment [1]; at IKKε) was below 300 nM throughout.

Turning to `Cn1cc(-c2cnc3[nH]cc(-c4cnc(OC5CCOCC5)c(C#N)c4)c3c2)cn1` [Compound A30, 5-[5-(1-Methylpyrazol-4-yl)-1H-pyrrolo[2,3-b]pyridin-3-yl]-2-tetrahydropyran-4-yloxypyridine-3-carbonitrile], the IC50 (in experiment [1]; at IKKε) was below 300 nM throughout.

Consider `Cn1cc(-c2cnc3[nH]cc(-c4ccc(OC5COC5)c(C#N)c4)c3c2)cn1` [Compound A31, 5-[5-(1-methyl-1H-pyrazol-4-yl)-1H-pyrrolo[2,3-b]pyridin-3-yl]-2-(oxetan-3-yloxy)benzonitrile], for which the IC50 (in experiment [1]; on IKKε) was below 300 nM throughout.

`Cn1cc(-c2cnc3[nH]cc(-c4ccc(OCC5(C)COC5)c(C#N)c4)c3c2)cn1` [Compound A32, 2-(3-methyloxetan-3-ylmethoxy)-5-[5-(1-methyl-1H-pyrazol-4-yl)-1H-pyrrolo[2,3-b]pyridin-3-yl]benzonitrile]: the IC50 (in experiment [1]; on IKKε) was below 300 nM throughout.

As to `N#Cc1cc(-c2c[nH]c3ncc(-c4cnn(CCN5CCCC5)c4)cc23)cnc1OC1CCOCC1` [Compound A33, 5-{5-[1-(2-Pyrrolidin-1-ylethyl)-1H-pyrazol-4-yl]-1H-pyrrolo[2,3-b]pyridin-3-yl}-2-(tetrahydropyran-4-yl-oxy)nicotinonitrile], the IC50 (in experiment [1]; at IKKε) was below 300 nM each time.

As to `N#Cc1cc(-c2c[nH]c3ncc(-c4cnn(C5COC5)c4)cc23)ccc1OC1COC1` [Compound A34, 2-(oxetan-3-yloxy)-5-[5-(1-oxetan-3-yl-1H-pyrazol-4-yl)-1H-pyrrolo-[2,3-b]pyridin-3-yl]benzonitrile], the IC50 (in experiment [1]; on IKKε) was below 300 nM each time.

For the compound `CC1(COc2ccc(-c3c[nH]c4ncc(-c5cnn(C6COC6)c5)cc34)cc2C#N)COC1` [Compound A35, 2-(3-methyloxetan-3-ylmethoxy)-5-[5-(1-oxetan-3-yl-1H-pyrazol-4-yl)-1H-pyrrolo[2,3-b]-pyridin-3-yl]benzonitrile], the IC50 (in experiment [1]; at IKKε) was below 300 nM in each case.

In the case of `CC1(COc2ccc(-c3c[nH]c4ncc(-c5cn[nH]c5)cc34)cc2C#N)COC1` [Compound A36, 2-(3-methyloxetan-3-ylmethoxy)-5-[5-(1H-pyrazol-4-yl)-1H-pyrrolo[2,3-b]pyridin-3-yl]benzonitrile], the IC50 (in experiment [1]; on IKKε) was below 300 nM throughout.

Regarding `N#Cc1cc(-c2c[nH]c3ncc(-c4cnn(C5COC5)c4)cc23)cnc1OC1CCOCC1` [Compound A37, 5-[5-(1-Oxetan-3-yl-1H-pyrazol-4-yl)-1H-pyrrolo-[2,3-b]pyridin-3-yl]-2-(tetrahydropyran-4-yloxy)-nicotinonitrile], the IC50 (in experiment [1]; at IKKε) was below 300 nM each time.

Consider `COCCn1cc(-c2cnc3[nH]cc(-c4cnc(OC5CCOCC5)c(C#N)c4)c3c2)cn1` [Compound A38, 5-{5-[1-(2-Methoxyethyl)-1H-pyrazol-4-yl]-1H-pyrrolo-[2,3-b]pyridin-3-yl}-2-(tetrahydropyran-4-yloxy)-nicotinonitrile], for which the IC50 (in experiment [1]; on IKKε) was below 300 nM each time.

For the origin of these results see US9102675B2, “3-Cyanoaryl-1H-pyrrolo[2,3-B] pyridine derivatives” (MERCK PATENT GMBH, priority 2011, dated 2015).
